Consider 30 molecules from US10479795B2 (Incyte Corporation, priority 2016, dated 2019).

By IC50 is commonly meant the concentration needed to halve the response being measured.

Chain of PI3Kγ (p110γ) Recombinant Human Protein (P48736 whole entry): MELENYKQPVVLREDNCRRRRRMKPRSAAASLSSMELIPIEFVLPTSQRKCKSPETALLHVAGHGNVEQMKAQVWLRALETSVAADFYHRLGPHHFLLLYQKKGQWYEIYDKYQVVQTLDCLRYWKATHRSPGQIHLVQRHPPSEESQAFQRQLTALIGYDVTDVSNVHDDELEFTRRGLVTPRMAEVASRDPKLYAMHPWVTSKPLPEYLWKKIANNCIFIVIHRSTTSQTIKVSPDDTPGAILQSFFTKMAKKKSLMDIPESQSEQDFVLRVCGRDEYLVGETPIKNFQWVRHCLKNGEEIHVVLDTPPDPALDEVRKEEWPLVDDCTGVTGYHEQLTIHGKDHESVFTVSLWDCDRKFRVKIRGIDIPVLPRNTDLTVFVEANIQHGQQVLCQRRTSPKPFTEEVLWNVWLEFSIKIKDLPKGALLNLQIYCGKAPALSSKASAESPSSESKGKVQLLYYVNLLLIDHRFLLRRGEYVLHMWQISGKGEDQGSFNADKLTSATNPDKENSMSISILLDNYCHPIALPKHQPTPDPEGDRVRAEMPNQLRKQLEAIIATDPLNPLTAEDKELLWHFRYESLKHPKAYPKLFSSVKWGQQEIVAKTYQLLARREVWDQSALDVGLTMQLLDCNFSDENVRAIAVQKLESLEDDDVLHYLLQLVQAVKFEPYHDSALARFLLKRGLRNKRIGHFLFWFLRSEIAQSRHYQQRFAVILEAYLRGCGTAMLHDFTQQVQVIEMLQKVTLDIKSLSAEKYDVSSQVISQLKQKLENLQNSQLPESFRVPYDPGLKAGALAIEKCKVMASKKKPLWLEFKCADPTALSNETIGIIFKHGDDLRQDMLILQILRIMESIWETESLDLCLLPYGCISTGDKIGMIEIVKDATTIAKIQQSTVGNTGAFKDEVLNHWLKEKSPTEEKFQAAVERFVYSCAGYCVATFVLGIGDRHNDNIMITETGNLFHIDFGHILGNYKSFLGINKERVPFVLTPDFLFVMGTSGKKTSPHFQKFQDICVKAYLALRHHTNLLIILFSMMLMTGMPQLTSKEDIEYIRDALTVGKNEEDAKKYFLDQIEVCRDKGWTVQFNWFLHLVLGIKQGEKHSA

In this test the target is PI3Kγ (p110γ) Recombinant Human Protein (Homo sapiens (Human), UniProt P48736). Nature of the test: PI3K-γ Scintillation Proximity Assay. In kind it is biochemical. To be noted: read-out: PI3Kγ IC50. As for the experimental part:
[γ-^33P]ATP (10 mCi/mL) and Wheat Germ Agglutinin (WGA) YSi SPA Scintillation Beads was purchased from Perkin-Elmer (Waltham, Mass.). […] PI3Kγ (p110γ) Recombinant Human Protein was purchased from Life technology (Grand Island, N.Y.). ATP, MgCl2, DTT, EDTA, MOPS and CHAPS were purchased from Sigma-Aldrich (St. Louis, Mo.).
The kinase reaction was conducted in polystyrene 384-well Greiner Bio-one white plate from Thermo Fisher Scientific in a final volume of 25 μL. Inhibitors were first diluted serially in DMSO and added to the plate wells before the addition of other reaction components. The final concentration of DMSO in the assay was 2%. The PI3Kγ assay was carried out at room temperature in 20 mM MOPS, pH 6.7, 10 mM MgCl2, 5 mM DTT and CHAPS 0.03%. Reactions were initiated by the addition of ATP, the final reaction mixture consisted of 20 μM PIP2, 2 μM ATP, 0.5 μCi [γ-^33P] […] The final concentration of SPA beads is 1.0 mg/mL. After the plate sealing, plates were shaken overnight at room temperature and centrifuged at 1500 rpm for 10 min, the radioactivity of the product was determined by scintillation counting on Topcount (Perkin-Elmer). IC50 determination was performed by fitting the curve of percent of the solvent control activity versus the log of the inhibitor concentration using the GraphPad Prism 6.0 software.
(In general: In a scintillation proximity assay essentially only radioactivity close to the scintillant gives light.)
Regarding `Cc1ccc(S(=O)(=O)Nc2c(C)nn(C)c2C)cc1-c1cnc2c(N)ncnn12` [Example 214, 3-(4-Aminoimidazo[2,1-f][1,2,4]triazin-7-yl)-4-methyl-N-(1,3,5-trimethyl-1H-pyrazol-4-yl)benzenesulfonamide], the IC50 is less than 100 nM.
The same measure for `Cc1ccc(S(=O)(=O)N2CCCn3nccc32)cc1-c1cnc2c(N)ncnn12` [Example 215, 7-(5-((6,7-dihydropyrazolo[1,5-a]pyrimidin-4(5H)-yl)sulfonyl)-2-methylphenyl)imidazo[2,1-f][1,2,4]triazin-4-amine]: less than 100 nM.
The same measure for `Cc1ccc(S(=O)(=O)N2CCC(c3ccccn3)CC2)cc1-c1cnc2c(N)ncnn12` [Example 216, 7-(2-methyl-5-((4-(pyridin-2-yl)piperidin-1-yl)sulfonyl)phenyl)imidazo[2,1-f][1,2,4]triazin-4-amine]: less than 100 nM; for `Cc1ccc(S(=O)(=O)N2CCC(C#N)CC2)cc1-c1cnc2c(N)ncnn12` [Example 217, 1-((3-(4-aminoimidazo[2,1-f][1,2,4]triazin-7-yl)-4-methylphenyl)sulfonyl)piperidine-4-carbonitrile]: less than 100 nM.
`Cc1ccc(S(=O)(=O)N2CCCC(C(F)(F)F)C2)cc1-c1cnc2c(N)ncnn12` (stereo not drawn) [Example 218, 7-(2-methyl-5-((3-(trifluoromethyl)piperidin-1-yl)sulfonyl)phenyl)imidazo[2,1-f][1,2,4]triazin-4-amine]: the IC50 was less than 100 nM.
On to `Cc1ccc(S(=O)(=O)N2CC(C3CCOC3)C2)cc1-c1cnc2c(N)ncnn12` (stereo not drawn) [Example 219, 7-(2-methyl-5-((3-(tetrahydrofuran-3-yl)azetidin-1-yl)sulfonyl)phenyl)imidazo[2,1-f][1,2,4]triazin-4-amine], for which the IC50 lay in the range of 100 to 500 nM.
The result for `Cc1ccc(S(=O)(=O)N2CC3(CCOC3)C2)cc1-c1cnc2c(N)ncnn12` [Example 220, 7-(5-((6-oxa-2-azaspiro[3.4]octan-2-yl)sulfonyl)-2-methylphenyl)imidazo[2,1-f][1,2,4]triazin-4-amine] reads less than 100 nM.
The same measure for `Cc1ccc(S(=O)(=O)N2C3CC4CC2CC(C3)O4)cc1-c1cnc2c(N)ncnn12` [Example 221, 7-(5-((-2-oxa-6-azaadamantan-6-yl)sulfonyl)-2-methylphenyl)imidazo[2,1-f][1,2,4]triazin-4-amine]: less than 100 nM; for `Cc1ccc(S(=O)(=O)N2CCn3cnnc3C2C)cc1-c1cnc2c(N)ncnn12` (stereo not drawn) [Example 222, 7-(2-methyl-5-((8-methyl-5,6-dihydro-[1,2,4]triazolo[4,3-a]pyrazin-7(8H)-yl)sulfonyl)phenyl)imidazo[2,1-f][1,2,4]triazin-4-amine]: less than 100 nM.
The result for `Cc1ccc(S(=O)(=O)N2CCn3ccnc3C2)cc1-c1cnc2c(N)ncnn12` [Example 223, 7-(5-((5,6-dihydroimidazo[1,2-a]pyrazin-7(8H)-yl)sulfonyl)-2-methylphenyl)imidazo[2,1-f][1,2,4]triazin-4-amine] reads less than 100 nM.
As to `Cc1ccc(S(=O)(=O)N2CCc3nc[nH]c3C2)cc1-c1cnc2c(N)ncnn12` [Example 224, 7-(2-methyl-5-((3,4,6,7-tetrahydro-5H-imidazo[4,5-c]pyridin-5-yl)sulfonyl)phenyl)imidazo[2,1-f][1,2,4]triazin-4-amine], the IC50 was less than 100 nM.
As for `Cc1ccc(S(=O)(=O)N2CCc3nn(C)cc3C2)cc1-c1cnc2c(N)ncnn12` [Example 225, 7-(2-methyl-5-((2-methyl-2,4,6,7-tetrahydro-5H-pyrazolo[4,3-c]pyridin-5-yl)sulfonyl)phenyl)imidazo[2,1-f][1,2,4]triazin-4-amine], the IC50 was less than 100 nM.
The result for `CC(=O)NC1CCN(S(=O)(=O)c2ccc(C)c(-c3cnc4c(N)ncnn34)c2)CC1` [Example 226, N-(1-((3-(4-aminoimidazo[2,1-f][1,2,4]triazin-7-yl)-4-methylphenyl)sulfonyl)piperidin-4-yl)acetamide] reads less than 100 nM.
The same measure for `CNC(=O)C1CCN(S(=O)(=O)c2ccc(C)c(-c3cnc4c(N)ncnn34)c2)CC1` [Example 227, 1-((3-(4-aminoimidazo[2,1-f][1,2,4]triazin-7-yl)-4-methylphenyl)sulfonyl)-N-methylpiperidine-4-carboxamide]: less than 100 nM; for `Cc1ccc(S(=O)(=O)N2CCN(C)C(=O)C2)cc1-c1cnc2c(N)ncnn12` [Example 228, 4-((3-(4-aminoimidazo[2,1-f][1,2,4]triazin-7-yl)-4-methylphenyl)sulfonyl)-1-methylpiperazin-2-one]: less than 100 nM.
Consider `CC(=O)N1CCN(S(=O)(=O)c2ccc(C)c(-c3cnc4c(N)ncnn34)c2)CC1` [Example 229, 1-(4-((3-(4-aminoimidazo[2,1-f][1,2,4]triazin-7-yl)-4-methylphenyl)sulfonyl)piperazin-1-l)ethan-1-one], for which the IC50 is less than 100 nM.
The result for `Cc1ccc(S(=O)(=O)N2CCN(c3ncccn3)CC2)cc1-c1cnc2c(N)ncnn12` [Example 230, 7-(2-methyl-5-((4-(pyrimidin-2-yl)piperazin-1-yl)sulfonyl)phenyl)imidazo[2,1-f][1,2,4]triazin-4-amine] reads less than 100 nM.
The result for `Cc1ccc(S(=O)(=O)N2CCN(c3nccnc3C#N)CC2)cc1-c1cnc2c(N)ncnn12` [Example 231, 3-(4-((3-(4-aminoimidazo[2,1-f][1,2,4]triazin-7-yl)-4-methylphenyl)sulfonyl)piperazin-1-yl)pyrazine-2-carbonitrile] reads less than 100 nM; that for `Cc1ccc(S(=O)(=O)N2CCN(c3ccc(C#N)cn3)CC2)cc1-c1cnc2c(N)ncnn12` [Example 232, 6-(4-((3-(4-aminoimidazo[2,1-f][1,2,4]triazin-7-yl)-4-methylphenyl)sulfonyl)piperazin-1-yl)nicotinonitrile], less than 100 nM.
The result for `Cc1ccc(S(=O)(=O)NCc2cnccn2)cc1-c1cnc2c(N)ncnn12` [Example 233, 3-(4-aminoimidazo[2,1-f][1,2,4]triazin-7-yl)-4-methyl-N-(pyrazin-2-ylmethyl)benzenesulfonamide] reads less than 100 nM; that for `Cc1ccc(S(=O)(=O)NC(c2ccccn2)C(F)(F)F)cc1-c1cnc2c(N)ncnn12` (stereo not drawn) [Example 234, 3-(4-aminoimidazo[2,1-f][1,2,4]triazin-7-yl)-4-methyl-N-(2,2,2-trifluoro-1-(pyridin-2-yl)ethyl)benzenesulfonamide], 100 to 500 nM.
As to `Cc1ccc(S(=O)(=O)NCc2cccc(C(F)(F)F)n2)cc1-c1cnc2c(N)ncnn12` [Example 235, 3-(4-aminoimidazo[2,1-f][1,2,4]triazin-7-yl)-4-methyl-N-((6-(trifluoromethyl)pyridin-2-yl)methyl)benzenesulfonamide], the concentration for half-maximal inhibition (IC50) was less than 100 nM.
The result for `Cc1ccc(S(=O)(=O)NCc2ccnn2C)cc1-c1cnc2c(N)ncnn12` [Example 236, 3-(4-aminoimidazo[2,1-f][1,2,4]triazin-7-yl)-4-methyl-N-((1-methyl-1H-pyrazol-5-yl)methyl)benzenesulfonamide] reads less than 100 nM; that for `Cc1nc(CNS(=O)(=O)c2ccc(C)c(-c3cnc4c(N)ncnn34)c2)no1` [Example 237, 3-(4-aminoimidazo[2,1-f][1,2,4]triazin-7-yl)-4-methyl-N-((5-methyl-1,2,4-oxadiazol-3-yl)methyl)benzenesulfonamide], less than 100 nM; that for `Cc1ccc(S(=O)(=O)NC(CN)C2CC2)cc1-c1cnc2c(N)ncnn12` (stereo not drawn) [Example 238, N-(2-amino-1-cyclopropylethyl)-3-(4-aminoimidazo[2,1-f][1,2,4]triazin-7-yl)-4-methylbenzenesulfonamide], 100 to 500 nM.
The result for `Cc1ccc(S(=O)(=O)NC(C)(C)CN2CCCC2)cc1-c1cnc2c(N)ncnn12` [Example 239, 3-(4-aminoimidazo[2,1-f][1,2,4]triazin-7-yl)-4-methyl-N-(2-methyl-1-(pyrrolidin-1-yl)propan-2-yl)benzenesulfonamide] reads 500 to 2000 nM; that for `Cc1ccc(S(=O)(=O)N2CCn3ncc(C#N)c3C2)cc1-c1cnc2c(N)ncnn12` [Example 240, 5-((3-(4-aminoimidazo[2,1-f][1,2,4]triazin-7-yl)-4-methylphenyl)sulfonyl)-4,5,6,7-tetrahydropyrazolo[1,4-a]pyrazine-3-carbonitrile], less than 100 nM.
The same measure for `Cc1ccc(S(=O)(=O)N2CCn3cnc(C(=O)NCC(F)(F)F)c3C2)cc1-c1cnc2c(N)ncnn12` [Example 241, 7-((3-(4-aminoimidazo[2,1-f][1,2,4]triazin-7-yl)-4-methylphenyl)sulfonyl)-N-(2,2,2-trifluoroethyl)-5,6,7,8-tetrahydroimidazo[1,5-a]pyrazine-1-carboxamide]: less than 100 nM; for `Cc1ccc(S(=O)(=O)Nc2ccc(C(=O)N3CC(O)C3)nc2)cc1-c1cnc2c(N)ncnn12` [Example 242, 3-(4-aminoimidazo[2,1-f][1,2,4]triazin-7-yl)-N-(6-(3-hydroxyazetidine-1-carbonyl)pyridin-3-yl)-4-methylbenzenesulfonamide]: less than 100 nM.
Regarding `Cc1ccc(S(=O)(=O)Nc2cc3cn[nH]c3cn2)cc1-c1cnc2c(N)ncnn12` [Example 243, 3-(4-aminoimidazo[2,1-f][1,2,4]triazin-7-yl)-4-methyl-N-(1H-pyrazolo[3,4-c]pyridin-5-yl)benzenesulfonamide], the IC50 was less than 100 nM.
